Reference: patent US20040254241A1, “Aryl sulfamate derivatives” (priority 2004, published 2004)

Target: T1, recombinant human estrone sulfatase (Homo sapiens, UniProt P08842)
T1 construct: made in house; host or cells: Chinese Hamster Ovary (CHO) cells
T1 sequence (P08842 22-583): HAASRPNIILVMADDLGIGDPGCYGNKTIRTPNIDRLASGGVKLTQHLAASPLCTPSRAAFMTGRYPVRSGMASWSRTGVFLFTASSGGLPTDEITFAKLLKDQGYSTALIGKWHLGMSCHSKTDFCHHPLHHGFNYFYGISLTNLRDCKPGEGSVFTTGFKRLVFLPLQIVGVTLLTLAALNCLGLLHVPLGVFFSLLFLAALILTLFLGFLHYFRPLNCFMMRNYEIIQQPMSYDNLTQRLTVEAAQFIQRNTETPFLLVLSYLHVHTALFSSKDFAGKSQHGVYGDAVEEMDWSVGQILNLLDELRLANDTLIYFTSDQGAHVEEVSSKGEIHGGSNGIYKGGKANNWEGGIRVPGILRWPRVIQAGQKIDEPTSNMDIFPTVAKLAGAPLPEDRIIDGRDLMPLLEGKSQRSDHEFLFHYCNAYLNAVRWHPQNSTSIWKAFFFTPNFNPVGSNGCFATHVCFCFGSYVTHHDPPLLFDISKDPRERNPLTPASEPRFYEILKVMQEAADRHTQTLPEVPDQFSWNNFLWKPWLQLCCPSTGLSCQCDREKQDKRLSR
Experiment: Test for inhibition of estrone sulfatase (steroid sulfatase)
Type: biochemical
Settings: 4-methylumbelliferyl sulfate 0.3 mmol/L, phosphate buffer pH 7.5, 37° C., 1 hour; enzyme expressed in CHO cells, partially purified; read-out: Inhibitory activity against steroid sulfatase IC50
Procedure: Test Example 1: Test for Inhibition of Estrone Sulfatase (Steroid Sulfatase)
4-Methylumbelliferyl sulfate (final concentration 0.3 mmol/L), recombinant human estrone sulfatase (7.8 ng/well), and each solution of the test compound having each test concentrations (test compound was dissolved in 0.001 mL of DMSO) were added to a phosphate buffer (pH 7.5) (final volume 0.1 mL) containing 0.28 mol/L sucrose and 0.04 mol/L nicotinamide. An enzyme reaction was conducted at 37° C. for 1 hour. The human estrone sulfatase gene was introduced into Chinese Hamster Ovary (CHO) cells, and the recombinant human estrone sulfatase was expressed, then it was used after partial purification. After completing the enzyme reaction, 2 mol/L glycine-sodium hydroxide solution (pH 10.3) (0.13 mL) was added and stirred. Using a fluorescent plate reader (Cyto Fluor II), the fluorescent strength of the generated 4-methylumbelliferone was measured. The measurements were conducted in duplicate at the same time. The fluctuations within the assay were within 10%. An enzyme reaction without the presence of a test compound was conducted at the same time. The inhibitory activity against estrone sulfatase for each concentration of the test compounds was calculated using the following equation.
A: Amount of 4-methylumbelliferone when test compound is present
B: Amount of 4-methylumbelliferone when test compound is not present
Inhibitory activity against estrone sulfatase [formula]
The inhibitory activity against estrone sulfatase of the aryl sulfamate derivative can be expressed as the concentration (IC50) of aryl sulfamate derivative at which the estrone sulfatase activity in the presence of the aryl sulfamate derivative is half of that when no test compound is added.

| SMILES | IC50 [nM] |
| --- | --- |
| CCCCCCCCCNC(=O)/C(C)=C/c1ccc(OS(N)(=O)=O)cc1 [Compound 3] | 61 |
| CCCCCCCCCNC(=O)/C=C/c1ccc(OS(N)(=O)=O)cc1 [Compound 1] | 73 |
| CCCCCCCCCNC(=O)/C(I)=C/c1ccc(OS(N)(=O)=O)cc1 [Compound 43] | 59 |
| CCCCCCCCCNC(=O)/C(C#N)=C(\C)c1ccc(OS(N)(=O)=O)cc1 [Compound 13] | 12 |
| CCCCCCCCCNC(=O)/C(Br)=C/c1ccc(OS(N)(=O)=O)cc1 [Compound 42] | 54 |
| CCCCCCCCCNC(=O)/C(C#N)=C(\C)c1ccc(OS(N)(=O)=O)c(Br)c1 [Compound 56] | 41 |
| CCCCCCCCCNC(=O)/C(C#N)=C(\C)c1ccc(OS(N)(=O)=O)c(Cl)c1 [Compound 55] | 38 |
